What was measured:
[1] = Dissolution of resveratrol in sugar or sugar alcohol solutions (observation); format: physicochemical
Experimental: A ribose/water solution (18 g/2 g) was heated.
In another experiment, various sucrose/water mixtures were heated to boiling point. Reservatrol was added to each sucrose/water solution. […] On cooling, resveratrol/sucrose/water mixtures formed crystalline solids composed of small crystals; in contrast, the sucrose/water solution formed a crystalline solid composed of large crystals.
In another experiment, water was added to the solid resveratrol/sucrose/water mixtures.
An aqueous solution of dextrose was prepared and heated to boiling. The resveratrol was added to the warm syrup and allowed to cool further. While still liquid, the syrup retained a capsinoid flavor. On cooling further, a white powdery mixture of crystals was formed. No capsinoid-like flavor was detected when the solid mixture was tasted.
Resveratrol was added to warm solutions of xylitol or erythritol. […] On cooling the xylitol or erythritol solution formed a crystalline solid that appeared to exclude the resveratrol. No capsaicirioid-like flavor was detected when each reservatrol/xylitol and reservatrol/erythritol solid mixture was tasted.
Water was added to the each reservatrol/xylitol and reservatrol/erythritol mixture.

[2] = Resveratrol solubility in ribose, U.V. HPLC and mass spectrometry peak areas (Table 1); format: physicochemical
Experimental: The peak areas of the LC traces using U.V. and MS spectral detection were determined. […]

[3] = Solubility of resveratrol in 3M ribose, U.V. HPLC and MS peak areas (Table 2); format: physicochemical
Excerpt: Table 2 and 3 summarize the results.

[4] = Pharmacokinetic study, 100 mg resveratrol, oral transmucosal resveratrol/solubilizer formulation (test) versus controls; format: in vivo, human; conditions: for Cav: plasma
Experimental: Any adverse effects are recorded. […] These adjustments are made using the formulas […])).

[5] = trans/cis isomerisation of resveratrol in water or 3 M ribose, with or without 30 minutes U.V. light (Table 3, FIGS. 1-4); format: physicochemical; conditions: for cis isomer peak area, Mass spectroscopy / cis isomer peak area, PDA (trans-316 nm, cis-284 nm) / cis isomer peak area, Tandem mass spectroscopy / trans isomer peak area, Mass spectroscopy / trans isomer peak area, PDA (trans-316 nm, cis-284 nm) / trans isomer peak area, Tandem mass spectroscopy: UV exposed 30 minutes
Excerpt: PDA-284 nm panel: NL: 4.31E5; nm=283.5-284.5; PDA Avalon. MS Panel: NL: 3.90E6; m/z=226.60-227.60; F: -c APCI corona; sid=10.00; Full ms [100.00-1000.00] MS ICIS. Tandem MS panel: NL: 7.71E5; m/z=184.50-185.50; F: -c APCI corona; sid=10.00 Full ms2 227.00@cid45.00 [60.00-250.00] MS ICIS.

[6] = 0.4 mg/ml standard in MeOH/water
[7] = 1.3 mg resveratrol in 1 ml 1M ribose
[8] = 1.3 mg resveratrol in 1 ml water
[9] = 1.6 mg resveratrol in 1 ml 3M ribose
[10] = 1.6 mg resveratrol in 1 ml water

Oc1ccc(/C=C/c2cc(O)cc(O)c2)cc1 [Resveratrol, 3,5,4′-trihydroxy-trans-stilbene]
solubility ([1]; aqueous dextrose solution, heated to boiling and cooled): not well soluble | solubility ([1]; in ribose and in fructose/dextrose): soluble | solubility in the presence of ribose ([1]; ribose/water solution (18 g/2 g), 100 mg resveratrol to 1000 mg solution, inferred from sensation in the mouth): increased | dissolution ([1]; sucrose/water solution (1:1 v/v)): failed to dissolve | dissolution ([1]; various sucrose/water mixtures heated to about 90° C., then cooled): failed to dissolve | dissolution ([1]; warm solutions of xylitol or erythritol): observed not to dissolve | behaviour on adding water ([1]; water added to reservatrol/xylitol and reservatrol/erythritol mixtures): precipitated out of solution | behaviour on adding water ([1]; water added to the solid resveratrol/sucrose/water mixtures): precipitated out of solution | Resveratrol MS peak area [2, 6]: 361620189 | Resveratrol MS/MS peak area [2, 6]: 22825783 | Resveratrol UV peak area [2, 6]: 32589198 | Resveratrol MS peak area [2, 7]: 34006422 | Resveratrol MS/MS peak area [2, 7]: 2177343 | Resveratrol UV peak area [2, 7]: 6879044 | Resveratrol MS peak area [2, 8]: 17991728 | Resveratrol MS/MS peak area [2, 8]: 1055482 | Resveratrol UV peak area [2, 8]: 3757436 | Resveratrol MS peak area ([2]; 1:1 dilution of ribose sample): 59987321 | Resveratrol MS/MS peak area ([2]; 1:1 dilution of ribose sample): 4277049 | Resveratrol UV peak area ([2]; 1:1 dilution of ribose sample): 10156011 | Resveratrol MS peak area ([2]; 1:1 dilution of water sample): 36350491 | Resveratrol MS/MS peak area ([2]; 1:1 dilution of water sample): 2235878 | Resveratrol UV peak area ([2]; 1:1 dilution of water sample): 7414378 | percentage increase in the peak area with ribose ([2]; ribose (undiluted) sample versus water sample): 83.1% | peak area, Mass spectroscopy [3, 9]: 69226333 | peak area, PDA (trans-316 nm, cis-284 nm) [3, 9]: 17477801 | peak area, Tandem mass spectroscopy [3, 9]: 11603388 | peak area, Mass spectroscopy [3, 10]: 35925663 | peak area, PDA (trans-316 nm, cis-284 nm) [3, 10]: 10448839 | peak area, Tandem mass spectroscopy [3, 10]: 6058729 | % increase of peak area, Mass spectroscopy ([3]; 3M ribose versus water): 92.7% | % increase of peak area, PDA (trans-316 nm, cis-284 nm) ([3]; 3M ribose versus water): 67.3% | % increase of peak area, Tandem mass spectroscopy ([3]; 3M ribose versus water): 91.5% | Serum Cmax levels of resveratrol, test versus control subjects ([4]; 100 mg resveratrol): higher in test subjects | peak plasma level and bioavailability, test versus controls ([4]; resveratrol/solubilizer formulation by oral transmucosal route versus oral transmucosal resveratrol/sucrose or oral resveratrol/solubilizer): greater peak plasma level and bioavailability | cis isomer peak area, Mass spectroscopy ([5]; 3M ribose): 67794774 | cis isomer peak area, PDA (trans-316 nm, cis-284 nm) ([5]; 3M ribose): 3348277 | cis isomer peak area, Tandem mass spectroscopy ([5]; 3M ribose): 12957854 | trans isomer peak area, Mass spectroscopy ([5]; 3M ribose): 30056046 | trans isomer peak area, PDA (trans-316 nm, cis-284 nm) ([5]; 3M ribose): 9667985 | trans isomer peak area, Tandem mass spectroscopy ([5]; 3M ribose): 4678183 | isomers detected, PDA-316 nm panel ([5]; FIG. 1, 1.6 mg resveratrol in 1 ml water, no U.V. exposure): cis isomer is not detected | isomers detected, PDA-316 nm panel ([5]; FIG. 2, 1.6 mg resveratrol in 1 ml 3 M ribose, no U.V. exposure): cis isomer is not detected | isomers detected, PDA-316 nm panel ([5]; FIG. 3, 1.6 mg resveratrol in 1 ml water exposed to U.V. light for 30 minutes): trans isomer and cis isomer peaks detected | isomers detected, PDA-316 nm panel ([5]; FIG. 4, 1.6 mg resveratrol in 1 ml 3 M ribose exposed to U.V. light for 30 minutes): trans isomer and cis isomer peaks detected | cis isomer peak area, Mass spectroscopy ([5]; Water): 42202693 | cis isomer peak area, PDA (trans-316 nm, cis-284 nm) ([5]; Water): 2260306 | cis isomer peak area, Tandem mass spectroscopy ([5]; Water): 8357052 | trans isomer peak area, Mass spectroscopy ([5]; Water): 7702267 | trans isomer peak area, PDA (trans-316 nm, cis-284 nm) ([5]; Water): 3293034 | trans isomer peak area, Tandem mass spectroscopy ([5]; Water): 1489337

O=S(=O)(O)Oc1cc(O)cc(/C=C/c2ccc(O)cc2)c1 [3-sulfate, trans-resveratrol-3-O-sulfate]
Cav ([4]; Control(s): 100 mg resveratrol): 34 ng/mL | Cav ([4]; Test: 100 mg resveratrol, oral transmucosal resveratrol/solubilizer formulation): 23 ng/mL

— patent publication US11077070B2 (Wilmore Labs LLC, priority 2009, dated 2021)
